From US20240024290A1, “PHARMACEUTICAL COMPOSITIONS COMPRISING CANNABINOID AGONIST” (ARTELO BIOSCIENCES LIMITED, priority 2020, published 2024)
Where “and” joins values, the source holds several entries; their conditions need not be identical. Equal entries are not always repeated.

Experiment: Solubility study of API in liquid, semi-solid and binary excipients (visual, solvent aliquots, Parts 1 and 2)
Settings: for Aliquot where API first fully dissolved, Part 2 Study: aliquots 1/2/3/4 = 0.8/0.4/0.25/0.1 % w/v
Procedure: The aim of this study was to assess the solubility of the N-(2-(tert-butyl)-1-((4,4-difluorocyclohexyl)methyl)-1H-benzimidazol-5-yl)ethanesulfonamide in a number of different excipients.
The binary semi-solid composition mixtures were manufactured as follows: • I. The semi solids were dispensed then molten overnight at ˜60° C. […] (PEG 6000) • II. PEG 400 was added the next day, as required, (when all the semi-solids were molten) • III. Binary solvent mixture containing PEG 6000 were mixed at ˜80° C. and the remaining binaries were mixed at ˜70° C., until homogenous
Where required, the semi solids were melted prior to use (overnight). The solubility of the API in the selected solvents was assessed in two parts (Part 1 and Part 2 Studies) as follows: • i. Solvent aliquots were added to pre-dispensed API while mixing using a magnetic flea and stirrer. • ii. The temperature of the solvents was maintained as follows: • a. Single-component liquids: Room temperature (ambient) • b. TPGS and PEG 1500: ˜60° C. • c. PEG 6000 and binary solvent mixtures containing PEG 6000: ˜80° C. • iii. Solvents were mixed for a maximum of 1 hour between each aliquot addition. • iv. The solvents were carefully inspected visually between aliquots. • v. The addition of solvent was stopped when: • a. After Aliquot 2 addition if API fully dissolve—(even if API dissolve after Aliquot 1, Aliquot 2 was added) • b. After adding all the solvent aliquots in Table 28 • vi.

CCS(=O)(=O)Nc1ccc2c(c1)nc(C(C)(C)C)n2CC1CCC(F)(F)CC1 [Compound I, N-(2-(tert-butyl)-1-((4,4-difluorocyclohexyl)methyl)-1H-benzimidazol-5-yl)ethanesulfonamide]
4th: Aliquot where API first fully dissolved, Part 2 Study (in PEG 400, ambient) | Aliquot where API first fully dissolved, Part 2 Study (in molten Gelucire 48/16)
> 0.10% w/v: Solubility range (% w/v) Above/Below (in Polysorbate 20, ambient, upper limit not known) | Solubility range (% w/v) Above/Below (in Polysorbate 80, ambient, upper limit not known) | Solubility range (% w/v) Above/Below (in Propylene glycol dilaurate, ambient, upper limit not known)
> 0.25% w/v and < 0.40% w/v: Solubility range (% w/v) Above/Below (in molten Capmul 808G, listed as API) | Solubility range (% w/v) Above/Below (in molten Gelucire 50/13, listed as API)
DND*: Aliquot where API first fully dissolved, Part 1 Study (in 1,2-propane diol, ambient, DND = did not dissolve even after 3 aliquots (0.0125 % w/v)) | Aliquot where API first fully dissolved, Part 1 Study (in Corn oil, ambient, DND = did not dissolve even after 3 aliquots (0.0125 % w/v)) | Aliquot where API first fully dissolved, Part 1 Study (in Glycerol, ambient, DND = did not dissolve even after 3 aliquots (0.0125 % w/v)) | Aliquot where API first fully dissolved, Part 1 Study (in Kolliphor EL, ambient, DND = did not dissolve even after 3 aliquots (0.0125 % w/v)) | Aliquot where API first fully dissolved, Part 1 Study (in Kolliphor ELP, ambient, DND = did not dissolve even after 3 aliquots (0.0125 % w/v)) | Aliquot where API first fully dissolved, Part 1 Study (in Labrafil M 2125 CS, ambient, DND = did not dissolve even after 3 aliquots (0.0125 % w/v)) | Aliquot where API first fully dissolved, Part 1 Study (in Miglyol 812 (Medium-chain Triglycerides), ambient, DND = did not dissolve even after 3 aliquots (0.0125 % w/v)) | Aliquot where API first fully dissolved, Part 1 Study (in Oleic acid, ambient, DND = did not dissolve even after 3 aliquots (0.0125 % w/v)) | Aliquot where API first fully dissolved, Part 1 Study (in Soybean oil, ambient, DND = did not dissolve even after 3 aliquots (0.0125 % w/v)) | Aliquot where API first fully dissolved, Part 1 Study (in molten Glyceryl palmitostearate, DND = Did not dissolve (3 aliquots, 0.0125 % w/v)) | Aliquot where API first fully dissolved, Part 1 Study (in molten Sorbitan palmitate, DND = Did not dissolve (3 aliquots, 0.0125 % w/v))
> 0.40% w/v and < 0.80% w/v: Solubility range (% w/v) Above/Below (in Diethylene glycol monoethyl ether, ambient, listed as API) | Solubility range (% w/v) Above/Below (in Octanoic acid, ambient, listed as API) | Solubility range (% w/v) Above/Below (in PEG1500:TPGS (1:9), listed as API) | Solubility range (% w/v) Above/Below (in Propylene glycol monocaprylate, ambient, listed as API) | Solubility range (% w/v) Above/Below (in molten Cremophor RH40, listed as API) | Solubility range (% w/v) Above/Below (in molten Glyceryl monooleate, listed as API) | Solubility range (% w/v) Above/Below (in molten Kolliphor HS15, listed as API) | Solubility range (% w/v) Above/Below (in molten PEG 4000, listed as API)
2nd Only: Aliquot where API first fully dissolved, Part 1 Study (in molten Cremophor RH40, only after Overnight Hold, aliquots 1/2/3 = 0.05/0.025/0.0125 % w/v)
3rd: Aliquot where API first fully dissolved, Part 2 Study (in Labrasol ALF, ambient) | Aliquot where API first fully dissolved, Part 1 Study (in PEG1500:PEG6000 (1:9), ~80° C., aliquots 1/2/3 = 0.05/0.025/0.0125 % w/v) | Aliquot where API first fully dissolved, Part 1 Study (in PEG1500:TPGS (1:9), aliquots 1/2/3 = 0.05/0.025/0.0125 % w/v) | Aliquot where API first fully dissolved, Part 2 Study (in molten Capmul 808G) | Aliquot where API first fully dissolved, Part 2 Study (in molten Gelucire 50/13)
Precipitate: Observation of Part 2 solution on standing (in Labrasol ALF, after 4 aliquots (0.1 % w/v), 5 days later at ambient)
> 0.80% w/v: Solubility range (% w/v) Above/Below (in PEG400:PEG 1500 (1:1), upper limit not known) | Solubility range (% w/v) Above/Below (in PEG400:PEG 1500 (1:9), upper limit not known) | Solubility range (% w/v) Above/Below (in PEG400:PEG 1500 (9:1), upper limit not known) | Solubility range (% w/v) Above/Below (in PEG1500:PEG6000 (1:1), ~80° C., upper limit not known) | Solubility range (% w/v) Above/Below (in PEG1500:PEG6000 (1:9), ~80° C., upper limit not known) | Solubility range (% w/v) Above/Below (in PEG1500:PEG6000 (9:1), ~80° C., upper limit not known) | Solubility range (% w/v) Above/Below (in PEG1500:TPGS (1:1), upper limit not known) | Solubility range (% w/v) Above/Below (in PEG1500:TPGS (9:1), upper limit not known) | Solubility range (% w/v) Above/Below (in molten PEG 6000, ~80° C., upper limit not known)
1st: Aliquot where API first fully dissolved, Part 1 Study (in Diethylene glycol monoethyl ether, ambient, aliquots 1/2/3 = 0.05/0.025/0.0125 % w/v) | Aliquot where API first fully dissolved, Part 2 Study (in PEG400:PEG 1500 (1:1)) | Aliquot where API first fully dissolved, Part 1 Study (in PEG400:PEG 1500 (1:1), aliquots 1/2/3 = 0.05/0.025/0.0125 % w/v) | Aliquot where API first fully dissolved, Part 2 Study (in PEG400:PEG 1500 (1:9)) | Aliquot where API first fully dissolved, Part 1 Study (in PEG400:PEG 1500 (1:9), aliquots 1/2/3 = 0.05/0.025/0.0125 % w/v) | Aliquot where API first fully dissolved, Part 2 Study (in PEG400:PEG 1500 (9:1)) | Aliquot where API first fully dissolved, Part 1 Study (in PEG400:PEG 1500 (9:1), aliquots 1/2/3 = 0.05/0.025/0.0125 % w/v) | Aliquot where API first fully dissolved, Part 2 Study (in PEG1500:PEG6000 (1:1), ~80° C.) | Aliquot where API first fully dissolved, Part 1 Study (in PEG1500:PEG6000 (1:1), ~80° C., aliquots 1/2/3 = 0.05/0.025/0.0125 % w/v) | Aliquot where API first fully dissolved, Part 2 Study (in PEG1500:PEG6000 (1:9), ~80° C.) | Aliquot where API first fully dissolved, Part 2 Study (in PEG1500:PEG6000 (9:1), ~80° C.) | Aliquot where API first fully dissolved, Part 1 Study (in PEG1500:PEG6000 (9:1), ~80° C., aliquots 1/2/3 = 0.05/0.025/0.0125 % w/v) | Aliquot where API first fully dissolved, Part 2 Study (in PEG1500:TPGS (1:1)) | Aliquot where API first fully dissolved, Part 1 Study (in PEG1500:TPGS (1:1), aliquots 1/2/3 = 0.05/0.025/0.0125 % w/v) | Aliquot where API first fully dissolved, Part 2 Study (in PEG1500:TPGS (9:1)) | Aliquot where API first fully dissolved, Part 1 Study (in PEG1500:TPGS (9:1), aliquots 1/2/3 = 0.05/0.025/0.0125 % w/v) | Aliquot where API first fully dissolved, Part 1 Study (in molten Capmul 808G, aliquots 1/2/3 = 0.05/0.025/0.0125 % w/v) | Aliquot where API first fully dissolved, Part 1 Study (in molten Gelucire 48/16, aliquots 1/2/3 = 0.05/0.025/0.0125 % w/v) | Aliquot where API first fully dissolved, Part 1 Study (in molten Kolliphor HS15, aliquots 1/2/3 = 0.05/0.025/0.0125 % w/v) | Aliquot where API first fully dissolved, Part 1 Study (in molten PEG 4000, aliquots 1/2/3 = 0.05/0.025/0.0125 % w/v) | Aliquot where API first fully dissolved, Part 2 Study (in molten PEG 6000, ~80° C.)
2nd: Aliquot where API first fully dissolved, Part 2 Study (in Diethylene glycol monoethyl ether, ambient) | Aliquot where API first fully dissolved, Part 2 Study (in Octanoic acid, ambient) | Aliquot where API first fully dissolved, Part 1 Study (in Octanoic acid, ambient, aliquots 1/2/3 = 0.05/0.025/0.0125 % w/v) | Aliquot where API first fully dissolved, Part 1 Study (in PEG 400, ambient, aliquots 1/2/3 = 0.05/0.025/0.0125 % w/v) | Aliquot where API first fully dissolved, Part 2 Study (in PEG1500:TPGS (1:9)) | Aliquot where API first fully dissolved, Part 2 Study (in Propylene glycol monocaprylate, ambient) | Aliquot where API first fully dissolved, Part 1 Study (in Propylene glycol monocaprylate, ambient, aliquots 1/2/3 = 0.05/0.025/0.0125 % w/v) | Aliquot where API first fully dissolved, Part 1 Study (in molten Gelucire 50/13, aliquots 1/2/3 = 0.05/0.025/0.0125 % w/v) | Aliquot where API first fully dissolved, Part 2 Study (in molten Glyceryl monooleate) | Aliquot where API first fully dissolved, Part 1 Study (in molten Glyceryl monooleate, aliquots 1/2/3 = 0.05/0.025/0.0125 % w/v) | Aliquot where API first fully dissolved, Part 2 Study (in molten Kolliphor HS15) | Aliquot where API first fully dissolved, Part 2 Study (in molten PEG 4000) | Aliquot where API first fully dissolved, Part 1 Study (in molten PEG 6000, ~80° C., aliquots 1/2/3 = 0.05/0.025/0.0125 % w/v)
4th Only: Aliquot where API first fully dissolved, Part 2 Study (in Polysorbate 20, ambient, only after Overnight Hold) | Aliquot where API first fully dissolved, Part 2 Study (in Polysorbate 80, ambient, only after Overnight Hold) | Aliquot where API first fully dissolved, Part 2 Study (in Propylene glycol dilaurate, ambient, only after Overnight Hold)
> 0.025% w/v and < 0.05% w/v: Solubility range (% w/v) Above/Below (in Labrasol ALF, ambient, listed as API)
2nd^#: Aliquot where API first fully dissolved, Part 1 Study (in Labrasol ALF, ambient, only after stirring overnight, aliquots 1/2/3 = 0.05/0.025/0.0125 % w/v) | Aliquot where API first fully dissolved, Part 2 Study (in molten Cremophor RH40, only after stirring overnight)
3rd^#: Aliquot where API first fully dissolved, Part 1 Study (in Polysorbate 20, ambient, only after stirring overnight, aliquots 1/2/3 = 0.05/0.025/0.0125 % w/v) | Aliquot where API first fully dissolved, Part 1 Study (in Polysorbate 80, ambient, only after stirring overnight, aliquots 1/2/3 = 0.05/0.025/0.0125 % w/v) | Aliquot where API first fully dissolved, Part 1 Study (in Propylene glycol dilaurate, ambient, only after stirring overnight, aliquots 1/2/3 = 0.05/0.025/0.0125 % w/v)
